{"source": "patent US20230146923A1", "about": "“COMPOSITIONS AND METHODS FOR INHIBITION AND TARGETING OF P97” (California Institute of Technology, priority 2021, published 2023)", "type_in_all_cases": "cell-based", "key": {"cyclin D1": {"tested_on": "cyclin D1", "test": "Cyclin D1 level and degradation (co-treatment, CHX chase)", "experimental": "FIGS. 12A-12C depicts Western blots detecting the effects of p97 inhibitors and MG132 on cell cycle proteins in HT29 and HCT116 cells. […] Then, 50 μM of CHX was added and cells were collected at 0 h, 0.5 h, and 1 h. FIG. 12C depicts half-life of cyclin D1 in HCT116 cells. HCT116 cells were pre-treated with 5 μM of CB-5083 or DMSO for 30 minutes before adding 50 μM of CHX, and cells were collected at 0, 10, 20, 30 min (n=3), * indicates p<0.05 according to unpaired t-test.\n(§1) The concentration of MG132, CB-5083 and Baf A1 was 1 μM, 2 μM and 10 μM, respectively. […] FIGS. 13D-13E depict the half-life of Securin in HCT116 cells. HCT116 cells were treated with 1 μM of MG132, 2 μM of CB-5083, 1 μM of MG132 plus 2 μM of CB-5083 or DMSO. […] Cells were pretreated with […] for 1 h. […] For FIGS. 13B-13G, D, B, M, C and N represents DMSO, Baf A1, MG132, CB-5083 and NMS-873, respectively. Data are shown as mean±SD. Statistical analysis was performed using one-way ANOVA.\nCells were co-treated with CB-5083 and either the proteasome inhibitor MG132 or the autophagy inhibitor Bafilomycin A1 (Baf A1)."}, "HCT116 cells [1]": {"tested_on": "HCT116 cells", "test": "qRT-PCR analysis of ATF3, DHFR and CCND1 RNAs", "details": "HCT116, qPCR", "experimental": "(§2) FIGS. 10A-10F depicts p97 inhibition impairs the transcriptional activity of E2F1 by downregulating the CCND1/CDK complex. […] Data was analyzed using the g:Profiler website. Shading indicates the gene is a potential target of transcription factor c-Myb or E2F1. Blank indicates it is not a target gene. FIG. 10B depicts known regulatory network of the CCND1/CDK/RB1/E2F1 pathway. […] HCT116 cells were treated with 1 μM MG132, 2 μM CB-5083 or 4 μM of NMS-874 for 6 h. FIGS. 10E and 10F show transcriptional activity of E2F1 measured using E2F1 reporter assay. HCT116 cells were transfected with pGL2-AN plasmid (Addgene: 20950) for 24 h. Then cells were plated in 384 well plate and incubated for 16 h. The luminescence were detected after 8 h treatment with MG132, CB-5083 or NMS-873. Data are shown as mean±SD, n=3. f, qRT-PCR analysis of ATF3, DHFR and CCND1 RNAs following treatment with MG132, CB-5083 or NMS-874. HCT116 cells were treated for 2, 6 and 24 h using the same concentration as proteomic and western blot assay (n=4).\nTo determine if the decreased expression of E2F1 target genes was caused by the downregulation of E2F1 levels due to ER stress, qPCR and western blot were used to evaluate E2F1 levels. […] The transcriptional activity of E2F1 can also be repressed through the formation of a complex with the tumor suppressor protein retinoblastoma (RB1) (FIG. 10B). […]"}, "HCT116 cells [2]": {"tested_on": "HCT116 cells", "test": "Cell cycle analysis (DNA content)", "details": "HCT116, 24 h; 1 μM MG132, 2 μM CB-5083", "experimental": "FIG. 7A depicts cell cycle analysis of HCT116 cells after 24 h of treatments with DMSO, 1 μM of MG132 (MG) or 2 μM of CB-5083. […] Data were from TMT labeling proteomics. M, C and N indicates MG132, CB-5083 and NMS-873 treatment, respectively. […] HCT116 cells were treated for 24 h with DMSO, 1 μM of MG132 (MG), 2 μM of CB-5083 (CB) or 4 μM of NMS-873 (NMS), n=3."}, "E2F1": {"tested_on": "E2F1", "test": "E2F1 levels by qPCR and western blot", "details": "HCT116, 6 h", "experimental": "FIGS. 11A-11B show the effect of p97 inhibitors and MG132 on E2F1 expression in HCT116 cells. […] For both qPCR and western blot assays, HCT116 cells were treated for 6 h with DMSO, 1 μM of MG132 (MG), 2 μM of CB-5083 (CB) or 4 μM of NMS-873 (NMS), n=2, **** indicates p<0.0001, *** indicates p<0.001, * indicates p<0.05 according to unpaired t-test.\nTo determine if the decreased expression of E2F1 target genes was caused by the downregulation of E2F1 levels due to ER stress, qPCR and western blot were used to evaluate E2F1 levels. […] The transcriptional activity of E2F1 can also be repressed through the formation of a complex with the tumor suppressor protein retinoblastoma (RB1) (FIG. 10B). Hyperphosphorylation of RB1 by cyclin-D-cyclin-dependent kinase 4/6 complex (CCND1-CDK4/6) inactivates RB1 and induces the release of the E2F1 from the complex. The newly released E2F1 leads to transcriptional activation of target genes. […] This downregulation of CCND1 and CDK4 was further confirmed by western blot (FIG. 10D). […] Furthermore, the downregulation of CCND1 occurred after the upregulation of ATF3 (FIG. 10F). ATF3 is a stress-inducible gene, which binds to the cyclin D1 promoter and represses its transcription. Therefore, the upregulation of ATF3 potentially contribute to the downregulation of CCND1."}, "Securin": {"tested_on": "Securin", "test": "Securin degradation (CHX chase) in HCT116 cells", "details": "HCT116, 1 μM MG132, 50 μM CHX", "experimental": "as §1"}, "HCT116 cells [3]": {"tested_on": "HCT116 cells", "test": "Western blot of E2F1 related proteins and phos-4EBP1", "experimental": "FIGS. 9B-9C show network of E2F1 (FIG. 9B) and cMyb (FIG. 9C).\nas §2\nTo investigate whether the protein translation was inhibited by p97 or proteasome inhibitor, the phosphorylation state of eukaryotic translation initiation factor 4E-binding protein 1 (4E-BP1) was examined. Phosphorylation of 4E-BP1 serves to increase total protein translation. […] The effect of p97 inhibition on specific protein levels arises from a change in transcript levels. To examine how transcript levels might be affected, potential transcription factor binding sites (TFBSs) in the promoters of these 33 genes in the TRANSFAC database were examined. […] By examining protein-protein interaction networks related to E2F1 and MYB in the STRING database, 11 E2F1 interactors were found (FIG. 9B) and 11 MYB interactors (FIG. 9C). […] Therefore it was determined to further investigate the role of E2F1, rather than MYB, in cells responding to p97 and proteasome inhibition.\nIt was hypothesized that CCND1 and CDK4/6 upregulation by MG132 promotes RB1 hyperphosphorylation."}}, "note": "Where a SMILES comes first, the peptide text is derived from it. The star is where a group is joined. Cbz = O=C(OCc1ccccc1)*"}
{"molecule": "CC(C)C[C@@H](C=O)NC(=O)[C@H](CC(C)C)NC(=O)[C@H](CC(C)C)NC(=O)OCc1ccccc1", "note": "[MG132] (Cbz-Leu-Leu-Leu-aldehyde)", "values": [{"measurement": "Cyclin D1 turnover in cytosol and nucleus", "setting": "cyclin D1; HCT116, 50 μM CHX", "result": "blocked"}, {"measurement": "Effect on CB-5083 mediated cyclin D1 downregulation (co-treatment)", "setting": "cyclin D1; HCT116, 6 hours, MG132 1 μM, CB-5083 2 μM, Baf A1 10 μM", "result": "rescued CB-5083 mediated cyclin D1 downregulation at the protein level but not at the mRNA level"}, {"measurement": "mRNA levels of the E2F1 target gene DHFR", "setting": "HCT116 cells [1]", "result": "reducing the mRNA level of DHFR"}, {"measurement": "Distribution of cells in the G0/G1 phase", "setting": "HCT116 cells [2]", "result": "reduced distribution in the G0/G1 phase"}, {"measurement": "E2F1 RNA levels", "setting": "E2F1; qPCR, 1 μM MG132, 2 μM CB-5083, 4 μM NMS-873", "result": "strongly downregulated"}, {"measurement": "Protein level of E2F1", "setting": "E2F1; western blot", "result": "increased"}, {"measurement": "Securin protein degradation from the cytosol and nucleus", "setting": "Securin", "result": "blocked"}, {"measurement": "Phosphorylation of RB1", "setting": "HCT116 cells [3]; HCT116, 6 h, western blot", "result": "reduced phosphorylation of RB1"}, {"measurement": "Global protein translation (phosphorylation state of 4E-BP1)", "setting": "HCT116 cells [3]; HCT116, 6 h of treatments", "result": "inhibit global protein translation"}, {"measurement": "p21 (CDKN1A) level", "setting": "HCT116 cells [3]; HCT116, TMT and western blot", "result": "significantly upregulated"}]}
